Assay results published in the supplement of paper PMC4862054.

Tests used:
Settings in all cases: incubation time: 72 h
CAL-120 = assay: normalised viability (% of control), CellTiter-Blue; higher = more viable cells (about 100 = DMSO control)
Procedure, shortened: (§1)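 The reported figure is normalised viability at a single listed concentration of the series. Breast cancer cell lines (20 µl suspension) went onto 384-well plates holding compound in 5 µl medium for 72 h. CellTiter-Blue (2.5 µl, 2 h, 37 °C) was read by fluorescence at 560/590 nm, and each plate was scaled to vehicle at 100 and a positive kill control at 0.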

MDA-MB-468 = assay: as above
Procedure, shortened: as §1

CAL-148 [1] = assay: as above
Procedure, shortened: as §1

HCC1599 [2] = assay: as above
Procedure, shortened: as §1

SK-BR-3 = assay: as above
Procedure, shortened: as §1

HCC1143 [3] = assay: as above
Procedure, shortened: as §1

MDA-MB-436 [4] = assay: as above
Procedure, shortened: as §1

MFM-223 = assay: as above
Procedure, shortened: as §1

BT-474 = assay: as above
Procedure, shortened: as §1

Hs578T = assay: as above
Procedure, shortened: as §1

CAL-85-1 [5] = assay: as above
Procedure, shortened: as §1

BT-549 [6] = assay: as above
Procedure, shortened: as §1

HDQ-P1 = assay: as above
Procedure, shortened: as §1

MDA-MB-453 = assay: as above
Procedure, shortened: as §1

CAL-51 [7] = assay: as above
Procedure, shortened: as §1

MDA-MB-231 = assay: as above
Procedure, shortened: as §1

CAL-148 [8] = assay: drug sensitivity score (DSS), CellTiter-Glo (DSS (AUC-based score)); higher = stronger drug effect (viability inhibition or cytotoxicity); extreme values may be limits of the assay
Procedure, shortened: (§2)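 Plates with 384 wells held compound at 5 concentrations in 10-fold steps over a 10,000-fold range specific to each compound. Breast cancer cell lines were added in 20 µl suspension and incubated 72 h, then read for CellTox Green and CellTiter-Glo signals, with each plate normalised to 0.1 % DMSO and a positive kill control. The drug sensitivity score is based on the area under the fitted dose-response curve.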

MCF-10A = assay: as above
Procedure, shortened: as §2

HCC1599 [9] = assay: as above
Procedure, shortened: as §2

HCC1143 [10] = assay: as above
Procedure, shortened: as §2

MDA-MB-436 [11] = assay: as above
Procedure, shortened: as §2

CAL-85-1 [12] = assay: as above
Procedure, shortened: as §2

BT-549 [13] = assay: as above
Procedure, shortened: as §2

CAL-51 [14] = assay: as above
Procedure, shortened: as §2

CNC(=O)c1cc(Oc2ccc(NC(=O)Nc3ccc(Cl)c(C(F)(F)F)c3)c(F)c2)ccn1 [Regorafenib]
normalised viability [%]
Settings | 3 nM | 10 nM | 30 nM | 100 nM | 1000 nM | 10000 nM
BT-474 | – | 94.5 | – | – | 103 | 38.8
BT-549 [6] | – | 98.8 | – | – | 102 | 37.4
CAL-51 [7] | 106 | – | 106 | 104 | – | –
CAL-85-1 [5] | 84.7 | – | 89.1 | 88 | – | –
CAL-120 | – | 89.4 | – | – | 102 | 46
CAL-148 [1] | 88 | – | 90.2 | 95.3 | – | –
HCC1143 [3] | – | 76.8 | – | – | 77.8 | 75.4
HCC1599 [2] | – | 100 | – | – | 107 | 56.3
HDQ-P1 | 101 | – | 109 | 100 | – | –
Hs578T | – | 96.4 | – | – | 90.7 | 38.3
MDA-MB-231 | – | 90.5 | – | – | 68.1 | 31.7
MDA-MB-436 [4] | – | 115 | – | – | 102 | 65.2
MDA-MB-453 | 102 | – | 109 | 101 | – | –
MDA-MB-468 | – | 111 | – | – | 116 | 34.5
MFM-223 | – | 107 | – | – | 57.1 | 31.2
SK-BR-3 | – | 93.5 | – | – | 95.8 | 72.2

Settings | drug sensitivity score
BT-549 [13] | 1.23
CAL-51 [14] | 5.7
CAL-85-1 [12] | 0
CAL-148 [8] | 0.856
HCC1143 [10] | 0
HCC1599 [9] | 1.51
MCF-10A | 4.48
MDA-MB-436 [11] | 1.08

CO[C@H]1C[C@@H]2CC[C@@H](C)[C@@](O)(O2)C(=O)C(=O)N2CCCC[C@H]2C(=O)O[C@H]([C@H](C)C[C@@H]2CC[C@@H](OP(C)(C)=O)[C@H](OC)C2)CC(=O)[C@H](C)/C=C(\C)[C@@H](O)[C@@H](OC)C(=O)[C@H](C)C[C@H](C)/C=C/C=C/C=C/1C [Ridaforolimus]
normalised viability [%]
Settings | 0.3 nM | 1 nM | 3 nM | 10 nM | 100 nM | 1000 nM
BT-474 | – | 75.5 | – | – | 63 | 61.7
BT-549 [6] | – | 62.3 | – | – | 62.9 | 56.8
CAL-51 [7] | 90.1 | – | 56.2 | 38.6 | – | –
CAL-85-1 [5] | 68 | – | 57.1 | 59.5 | – | –
CAL-120 | – | 70 | – | – | 50 | 46.9
CAL-148 [1] | 79.9 | – | 43.8 | 36.6 | – | –
HCC1143 [3] | – | 71.5 | – | – | 56.1 | 56.8
HCC1599 [2] | – | 105 | – | – | 98.7 | 72.5
HDQ-P1 | 96.2 | – | 90.1 | 74.4 | – | –
Hs578T | – | 62.9 | – | – | 57.2 | 54.3
MDA-MB-231 | – | 86.4 | – | – | 81.8 | 70.4
MDA-MB-436 [4] | – | 81.3 | – | – | 94.5 | 79
MDA-MB-453 | 85.4 | – | 30 | 24.5 | – | –
MDA-MB-468 | – | 66.4 | – | – | 59.3 | 60.4
MFM-223 | – | 56.3 | – | – | 45 | 43.3
SK-BR-3 | – | 79.8 | – | – | 51 | 42.4

Settings | drug sensitivity score
BT-549 [13] | 12.4
CAL-51 [14] | 8.46
CAL-85-1 [12] | 8.38
CAL-148 [8] | 7.53
HCC1143 [10] | 8.23
HCC1599 [9] | 0
MCF-10A | 0
MDA-MB-436 [11] | 4.1
